pEC50: −log10 of the molar value.
Target: T1, calcitonin receptors (CTR) (Homo sapiens, UniProt P30988)
T1 construct: expressed in transfected cells; host or cells: cAMP Hunter HEK293-CT-R Gs cell line (HEK293, stably transfected)
T1 sequence (P30988 25-474): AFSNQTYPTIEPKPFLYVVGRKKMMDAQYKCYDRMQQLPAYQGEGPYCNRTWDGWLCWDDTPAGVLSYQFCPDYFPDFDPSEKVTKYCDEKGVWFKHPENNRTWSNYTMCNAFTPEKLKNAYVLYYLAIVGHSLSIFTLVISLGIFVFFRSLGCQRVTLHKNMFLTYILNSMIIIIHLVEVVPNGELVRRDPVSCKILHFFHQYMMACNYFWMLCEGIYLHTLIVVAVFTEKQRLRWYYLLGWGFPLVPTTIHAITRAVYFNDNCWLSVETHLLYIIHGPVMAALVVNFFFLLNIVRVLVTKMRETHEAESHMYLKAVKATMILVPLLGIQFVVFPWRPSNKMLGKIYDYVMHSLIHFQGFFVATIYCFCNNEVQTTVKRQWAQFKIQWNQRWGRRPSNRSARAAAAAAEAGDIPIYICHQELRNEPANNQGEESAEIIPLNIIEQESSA
Assay: cAMP determination (HTRF, cAMP Dynamic 2 Kit) in cAMP Hunter HEK293-CT-R Gs cell line
Format: cell-based
Conditions: for pEC50: HEK293 cell line stably expressing CT-R, intracellular cAMP, HTRF; for Relative Activity%: relative to Salmon Calcitonin = 100.0, HEK293 CT-R cAMP
Source text: Upon activation by a ligand, Gas-coupled GPCRs can upregulate intracellular cAMP level, and cAMP, as a second messenger, can mediate a series of cellular responses. The cAMP Hunter HEK293-CT-R Gs cell line, which overexpresses Gas-coupled calcitonin receptors (CTR), was used. The binding of calcitonin (or an analog thereof) to the overexpressed CTR upregulates intracellular cAMP level. The amount of intracellular cAMP produced after activation by the calcitonin (or an analog thereof) was detected using a cAMP Dynamic 2 Kit to evaluate the biological activity of the calcitonin (or an analog thereof). HEK293 cell line stably expressing CT-R was used. Stably transfected cells were stimulated with various concentrations of agonists. The time-resolved fluorescence resonance energy signal from the cells after stimulation with different doses was measured using HTRF technology, from which the biological activity of the agonist was subsequently calculated.

Compound | pEC50 | Relative Activity% [%]
CC(C)C[C@H](NC(=O)[C@H](CCCCN)NC(=O)CNC(=O)[C@H](CC(C)C)NC(=O)[C@@H](NC(=O)[C@@H]1CSSC[C@H](N)C(=O)N[C@@H](CO)C(=O)N[C@@H](CC(N)=O)C(=O)N[C@@H](CC(C)C)C(=O)N[C@@H](CO)C(=O)N[C@@H]([C@@H](C)O)C(=O)N1)C(C)C)C(=O)N[C@@H](CO)C(=O)N[C@@H](CCC(N)=O)C(=O)N[C@@H](CCC(=O)O)C(=O)N[C@@H](CC(C)C)C(=O)N[C@@H](Cc1c[nH]cn1)C(=O)N[C@@H](CCCCNC(=O)COCCOCCNC(=O)COCCOCCNC(=O)COCCOCCNC(=O)CC[C@H](NC(=O)CCCCCCCCCCCCCCCCCCC(=O)O)C(=O)O)C(=O)N[C@@H](CC(C)C)C(=O)N[C@@H](CCC(N)=O)C(=O)N[C@H](C(=O)N[C@@H](Cc1ccc(O)cc1)C(=O)N1CCC[C@H]1C(=O)N[C@@H](CCCNC(=N)N)C(=O)N[C@H](C(=O)N[C@@H](CC(N)=O)C(=O)N[C@H](C(=O)NCC(=O)N[C@@H](CO)C(=O)NCC(=O)N[C@H](C(=O)N1CCC[C@H]1C(N)=O)[C@@H](C)O)[C@@H](C)O)[C@@H](C)O)[C@@H](C)O [Compound 17, Cys-Ser-Asn-Leu-Ser-Thr-Cys-Val-Leu-Gly-Lys-Leu-Ser-Gln-Glu-Leu-His-Lys(AEEA-AEEA-AEEA-γGlu-eicosanedioic acid)-Leu-Gln-Thr-T yr-Pro-Arg-Thr-Asn-Thr-Gly-Ser-Gly-Thr-Pro-NH2] | 11.51 | –
CC(C)C[C@H](NC(=O)[C@H](CCCCN)NC(=O)CNC(=O)[C@H](CC(C)C)NC(=O)[C@@H](NC(=O)[C@@H]1CSSC[C@H](N)C(=O)N[C@@H](CO)C(=O)N[C@@H](CC(N)=O)C(=O)N[C@@H](CC(C)C)C(=O)N[C@@H](CO)C(=O)N[C@@H]([C@@H](C)O)C(=O)N1)C(C)C)C(=O)N[C@@H](CO)C(=O)N[C@@H](CCC(N)=O)C(=O)N[C@@H](CCC(=O)O)C(=O)N[C@@H](CC(C)C)C(=O)N[C@@H](Cc1c[nH]cn1)C(=O)N[C@@H](CCCCNC(=O)COCCOCCOCCNC(=O)CC[C@H](NC(=O)CCCCCCCCCCCCCCCCC(=O)O)C(=O)O)C(=O)N[C@@H](CC(C)C)C(=O)N[C@@H](CCC(N)=O)C(=O)N[C@H](C(=O)N[C@@H](Cc1ccc(O)cc1)C(=O)N1CCC[C@H]1C(=O)N[C@@H](CCCNC(=N)N)C(=O)N[C@H](C(=O)N[C@@H](CC(N)=O)C(=O)N[C@H](C(=O)NCC(=O)N[C@@H](CO)C(=O)NCC(=O)N[C@H](C(=O)N1CCC[C@H]1C(N)=O)[C@@H](C)O)[C@@H](C)O)[C@@H](C)O)[C@@H](C)O [Compound 18, Cys-Ser-Asn-Leu-Ser-Thr-Cys-Val-Leu-Gly-Lys-Leu-Ser-Gln-Glu-Leu-His-Lys(PEG3CH2CO-γGlu-octadecanedioic acid)-Leu-Gln-Thr-Tyr-Pr o-Arg-Thr-Asn-Thr-Gly-Ser-Gly-Thr-Pro-NH2] | – | 271.4

Other lines, results leading:

pEC50 | Relative Activity% [%] | Compound
11.54 | – | CC(C)C[C@H](NC(=O)[C@H](CCCCN)NC(=O)CNC(=O)[C@H](CC(C)C)NC(=O)[C@@H](NC(=O)[C@@H]1CSSC[C@H](N)C(=O)N[C@@H](CO)C(=O)N[C@@H](CC(N)=O)C(=O)N[C@@H](CC(C)C)C(=O)N[C@@H](CO)C(=O)N[C@@H]([C@@H](C)O)C(=O)N1)C(C)C)C(=O)N[C@@H](CO)C(=O)N[C@@H](CCC(N)=O)C(=O)N[C@@H](CCC(=O)O)C(=O)N[C@@H](CC(C)C)C(=O)N[C@@H](Cc1c[nH]cn1)C(=O)N[C@@H](CCCCNC(=O)COCCOCCNC(=O)COCCOCCNC(=O)CC[C@H](NC(=O)CCCCCCCCCCCCCCCCCCC(=O)O)C(=O)O)C(=O)N[C@@H](CC(C)C)C(=O)N[C@@H](CCC(N)=O)C(=O)N[C@H](C(=O)N[C@@H](Cc1ccc(O)cc1)C(=O)N1CCC[C@H]1C(=O)N[C@@H](CCCNC(=N)N)C(=O)N[C@H](C(=O)N[C@@H](CC(N)=O)C(=O)N[C@H](C(=O)NCC(=O)N[C@@H](CO)C(=O)NCC(=O)N[C@H](C(=O)N1CCC[C@H]1C(N)=O)[C@@H](C)O)[C@@H](C)O)[C@@H](C)O)[C@@H](C)O [Compound 16, Cys-Ser-Asn-Leu-Ser-Thr-Cys-Val-Leu-Gly-Lys-Leu-Ser-Gln-Glu-Leu-His-Lys(AEEA-AEEA-γGlu-eicosanedioic acid)-Leu-Gln-Thr-Tyr-Pro-Arg-Thr-Asn-Thr-Gly-Ser-Gly-Thr-Pro-NH2]
11.43 | – | CC(C)C[C@H](NC(=O)[C@H](CCCCN)NC(=O)CNC(=O)[C@H](CC(C)C)NC(=O)[C@@H](NC(=O)[C@@H]1CSSC[C@H](N)C(=O)N[C@@H](CO)C(=O)N[C@@H](CC(N)=O)C(=O)N[C@@H](CC(C)C)C(=O)N[C@@H](CO)C(=O)N[C@@H]([C@@H](C)O)C(=O)N1)C(C)C)C(=O)N[C@@H](CO)C(=O)N[C@@H](CCC(N)=O)C(=O)N[C@@H](CCC(=O)O)C(=O)N[C@@H](CC(C)C)C(=O)N[C@@H](Cc1c[nH]cn1)C(=O)N[C@@H](CCCCNC(=O)COCCOCCNC(=O)COCCOCCNC(=O)CC[C@H](NC(=O)CCCCCCCCCCCCCCCCC(=O)O)C(=O)O)C(=O)N[C@@H](CC(C)C)C(=O)N[C@@H](CCC(N)=O)C(=O)N[C@H](C(=O)N[C@@H](Cc1ccc(O)cc1)C(=O)N1CCC[C@H]1C(=O)N[C@@H](CCCNC(=N)N)C(=O)N[C@H](C(=O)N[C@@H](CC(N)=O)C(=O)N[C@H](C(=O)NCC(=O)N[C@@H](CO)C(=O)NCC(=O)N[C@H](C(=O)N1CCC[C@H]1C(N)=O)[C@@H](C)O)[C@@H](C)O)[C@@H](C)O)[C@@H](C)O [Compound 19, Cys-Ser-Asn-Leu-Ser-Thr-Cys-Val-Leu-Gly-Lys-Leu-Ser-Gln-Glu-Leu-His-Lys(AEEA-AEEA-γGlu-octadecanedioic acid)-Leu-Gln-Thr-Tyr-P ro-Arg-Thr-Asn-Thr-Gly-Ser-Gly-Thr-Pro-NH2]
– | 296.9 | CC(C)C[C@H](NC(=O)[C@H](CCCCN)NC(=O)CNC(=O)[C@H](CC(C)C)NC(=O)[C@@H](NC(=O)[C@@H]1CSSC[C@H](N)C(=O)N[C@@H](CO)C(=O)N[C@@H](CC(N)=O)C(=O)N[C@@H](CC(C)C)C(=O)N[C@@H](CO)C(=O)N[C@@H]([C@@H](C)O)C(=O)N1)C(C)C)C(=O)N[C@@H](CO)C(=O)N[C@@H](CCC(N)=O)C(=O)N[C@@H](CCC(=O)O)C(=O)N[C@@H](CC(C)C)C(=O)N[C@@H](Cc1c[nH]cn1)C(=O)N[C@@H](CCCCNC(=O)COCCOCCOCCNC(=O)CC[C@H](NC(=O)CCCCCCCCCCCCCCCCCCCCC(=O)O)C(=O)O)C(=O)N[C@@H](CC(C)C)C(=O)N[C@@H](CCC(N)=O)C(=O)N[C@H](C(=O)N[C@@H](Cc1ccc(O)cc1)C(=O)N1CCC[C@H]1C(=O)N[C@@H](CCCNC(=N)N)C(=O)N[C@H](C(=O)N[C@@H](CC(N)=O)C(=O)N[C@H](C(=O)NCC(=O)N[C@@H](CO)C(=O)NCC(=O)N[C@H](C(=O)N1CCC[C@H]1C(N)=O)[C@@H](C)O)[C@@H](C)O)[C@@H](C)O)[C@@H](C)O [Compound 20, Cys-Ser-Asn-Leu-Ser-Thr-Cys-Val-Leu-Gly-Lys-Leu-Ser-Gln-Glu-Leu-His-Lys(PEG3CH2CO-γGlu-docosanedioic acid)-Leu-Gln-Thr-Tyr-Pro-Arg-Thr-Asn-Thr-Gly-Ser-Gly-Thr-Pro-NH2]

Reference: patent publication EP4691482A1, “LONG-ACTING CALCITONIN ANALOG” (Chengdu Aoda Biotechnology Co., Ltd., priority 2023, dated 2024)
